Consider eight compounds from publication PMC3438226 (Bioorganic & medicinal chemistry, 2012).

For orientation: Ki means a dissociation constant, usually derived from enzyme kinetics or from competition with a known ligand.

For one assay, the target named is T1, human MTAP (Homo sapiens, UniProt Q13126).
T1 sequence (Q13126 1-283): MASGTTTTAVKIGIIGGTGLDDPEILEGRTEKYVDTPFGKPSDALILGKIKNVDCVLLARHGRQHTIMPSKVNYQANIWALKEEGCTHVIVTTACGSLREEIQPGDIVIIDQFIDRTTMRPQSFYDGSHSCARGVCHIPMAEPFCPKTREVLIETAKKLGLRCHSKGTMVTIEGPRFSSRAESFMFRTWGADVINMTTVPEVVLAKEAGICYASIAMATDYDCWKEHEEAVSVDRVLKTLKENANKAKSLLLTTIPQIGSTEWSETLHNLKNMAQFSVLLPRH
The assay can be described thus: Inhibition of phosphorolysis of MTA catalysed by human MTAP. The format is biochemical.

Assay [1] concerns the target T2, E. coli MTAN (Escherichia coli, UniProt P0AF12). It counts as biochemical.
Assay [2] concerns the target T3, N. meningitidis MTAN (Neisseria meningitidis, UniProt Q9K054). The assay can be described thus: Inhibition of hydrolysis of MTA catalysed by N. meningitidis MTAN. The format is biochemical.
Assay [3] addresses T2, E. coli MTAN. The settings on record: read-out: Ki* E. coli MTAN; Ki* value; cited from earlier work.
The target in assay [4] is T3, N. meningitidis MTAN. To be noted: read-out: Ki* N. men. MTAN; Ki* value; cited from earlier work.

T2 sequence (P0AF12 whole entry): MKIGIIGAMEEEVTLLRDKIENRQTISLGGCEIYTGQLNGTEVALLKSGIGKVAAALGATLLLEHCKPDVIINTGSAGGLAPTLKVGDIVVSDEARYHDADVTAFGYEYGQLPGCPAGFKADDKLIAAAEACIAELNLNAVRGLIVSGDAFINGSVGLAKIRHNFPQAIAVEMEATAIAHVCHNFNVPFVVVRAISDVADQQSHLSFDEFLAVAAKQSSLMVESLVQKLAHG

For `CSCC(CO)CNCc1c[nH]c2c(N)ncnc12` (racemic) [(±)-25], on human MTAP, the “weaker binding affinity compared with 4” value is “approximately 110 fold”. Moreover, at E. coli MTAN [1] (E. coli MTAN), the “times weaker inhibitor than 17 I” value came to 1.5 fold and the “weaker binding affinity compared with 4” value was about 180 fold. Further, the “difference in binding affinity compared with 4” value at N. meningitidis MTAN [2] (N. meningitidis MTAN) is listed as 9 fold.

Consider `CSC[C@@H](CN(C)Cc1c[nH]c2c(N)ncnc12)[C@@H](O)CO` (racemic) [(±)-68], for which the “improvement of inhibition relative to (±)-65” value on human MTAP (N-methylation) is recorded as “about 3 fold”. On E. coli MTAN [1] (E. coli MTAN, N-methylation), the “loss of binding affinity relative to (±)-65” value stood at 250 fold. Moreover, at N. meningitidis MTAN [2] (N. meningitidis MTAN, N-methylation), the “loss in activity relative to (±)-65” value was about 12 fold.

Take `CSC[C@H](O)[C@@H](CO)CN(C)Cc1c[nH]c2c(N)ncnc12` (racemic) [(±)-72]: the figures for the “reduction in binding affinity relative to (±)-68” value at human MTAP and at N. meningitidis MTAN [2] (N. meningitidis MTAN) were about 9 fold and “approximately 2 fold”, respectively. Also, the “gain in binding affinity relative to (±)-68” value at E. coli MTAN [1] (E. coli MTAN) is about 6 fold.

For `CSC[C@H](O)[C@@H](O)CN(C)Cc1c[nH]c2c(N)ncnc12` (racemic) [(±)-78], at human MTAP, the “loss in activity relative to (±)-72” value is about 4 fold. The “increase in potency relative to (±)-72” value at E. coli MTAN [1] (bacterial MTANs (E. coli)) and on N. meningitidis MTAN [2] (bacterial MTANs (N. meningitidis)) was “approximately 2 fold” in each case.

On to `CSC[C@@H](O)[C@@H](CO)NCc1c[nH]c2c(N)ncnc12` [Compound 33], for which, on E. coli MTAN [1] (E. coli MTAN), the “times weaker inhibitor than 17 I” value was “about 4 fold”.

Turning to `CSC[C@@H](O)CNCc1c[nH]c2c(N)ncnc12` [Compound 54], the “drop in binding affinity relative to (±)-25” value at E. coli MTAN [1] (E. coli MTAN) is reported as about 110 fold.

On to `CSC[C@H](CO)N[C@H](CO)c1c[nH]c2c(N)ncnc12` [Compound 79], for which, at E. coli MTAN [1] (E. coli MTAN, cleavage of 2,3 C-C bond of 3), the “loss of activity relative to 3” value is recorded as 21,500 fold.

As to “(1S)-1-(9-deazaadenin-9-yl)-1,4-dideoxy-1,4-imino-5-methylthio-D-ribitol [Compound 3]”, the Ki is 0.08 ± 0.02 nM on E. coli MTAN [3] and 0.36 nM at N. meningitidis MTAN [4].
